# Results: patent US20050101595A1, “N-containing cycloalkyl-substituted amino-thiazole derivatives and pharmaceutical compositions for inhibiting cell proliferation and methods for their use” (PFIZER INC., priority 2003, published 2005)
# Structures can show the parent of a compound that is named as a salt. Where two headings read alike, the source gives them in different places.
# Assays:
# CDK2/Cyclin A = CDK2/Cyclin A (Homo sapiens, UniProt P24941); assay: Inhibition of CDK2/Cyclin A Retinoblastoma Kinase Activity; format: biochemical; settings: for Ki: apparent Ki, CDK2/proteolyzed cyclin A, Rb fragment substrate, 25 μM ATP; for CDK2 % Inhibition At 0.03 μM: Table 2
# Method in brief: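 CDK2 (10 or 19 nM), insect-cell expressed, gel-filtration purified with truncated cyclin A; Rb fragment substrate; 25 μM ATP; 10 mM HEPES pH 7.4, 10 mM MgCl2; 30° C, 60 or 75 min; EDTA stop; phosphocellulose/nitrocellulose capture, phosphorimager. % inhibition vs DMSO control, no-enzyme background subtracted.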
# HCT-116 cell line = assay: Inhibition of cell growth, tetrazolium salt (MTT) assay; format: cell-based; settings: for HCT-116 % Inhibition at 0.25 μM: 0.25 μM compound; for IC50: Homo sapiens, HCT-116, 120 h, MTT, three to five days, read-out: HCT-116 IC50
# Method in brief: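 Growth inhibition is scored relative to cells receiving only 0.5% (v/v) DMSO. Plated cells rest 4 h, then take compound for three to five days at 37° C; MTT reduction to formazan is read at 540 nm.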
# [1] = biological target: human CDK4 and genetically truncated (1-264) cyclin D3 (Homo sapiens, UniProt P11802); assay: Inhibition of CDK4/Cyclin D Retinoblastoma Kinase Activity; format: biochemical; settings: for Ki: apparent Ki, CDK4/truncated cyclin D3, Rb fragment substrate, 25 μM ATP
# Chain of human CDK4 and genetically truncated (1-264) cyclin D3 (P11802 whole entry, the tested form may be a part): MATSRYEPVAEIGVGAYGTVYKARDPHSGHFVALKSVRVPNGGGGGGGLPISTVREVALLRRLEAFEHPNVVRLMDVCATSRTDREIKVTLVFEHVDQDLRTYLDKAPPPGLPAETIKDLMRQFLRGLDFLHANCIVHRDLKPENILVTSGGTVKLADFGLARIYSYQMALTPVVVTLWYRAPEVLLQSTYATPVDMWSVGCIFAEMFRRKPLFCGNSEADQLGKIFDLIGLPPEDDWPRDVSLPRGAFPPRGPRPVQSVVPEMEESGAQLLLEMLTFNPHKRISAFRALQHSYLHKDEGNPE
# Chain of human CDK4 and genetically truncated (1-264) cyclin D3 (P30281 1-264 partner): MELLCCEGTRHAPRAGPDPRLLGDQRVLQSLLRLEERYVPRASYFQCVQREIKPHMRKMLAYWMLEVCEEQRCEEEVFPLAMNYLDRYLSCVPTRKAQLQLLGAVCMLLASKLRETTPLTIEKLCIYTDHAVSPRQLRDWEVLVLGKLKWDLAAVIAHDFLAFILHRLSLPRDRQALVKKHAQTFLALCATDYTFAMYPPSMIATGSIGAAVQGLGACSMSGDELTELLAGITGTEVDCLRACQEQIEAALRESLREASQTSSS
# Method in brief: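 The enzyme complex (5 nM), expressed in co-infected insect cells, was incubated with recombinant Rb fragment, 25 μM radiolabelled ATP and 2% DMSO at 30 °C. Reactions were stopped with EDTA after 20 minutes, or 60 minutes for tight-binding inhibitors. Apparent Ki values came from competitive inhibition fits.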
# [2] = 0.1 μM compound, HCT-116, Table 3
smiles,measurement,setting,value
CCc1cc(Br)ccc1S(=O)(=O)N1CCC(Nc2nc(N)c(C(=O)c3c(F)cccc3F)s2)CC1 [Example P78],CDK2 % Inhibition at 0.03 μM,"CDK2/Cyclin A; 0.03 μM compound, Table 3",17%
same,HCT-116 % Inhibition at 0.1 μM,HCT-116 cell line; [2],27%
same,HCT-116 % Inhibition at 0.25 μM,"HCT-116 cell line; HCT-116, Table 3",23%
same,CDK4 % Inhibition at 0.03 μM,"[1]; 0.03 μM compound, Table 3",24%
Nc1nc(NC2CCN(C(=O)c3csc(C4COc5ccccc5O4)n3)CC2)sc1C(=O)c1c(F)cccc1F (stereo not drawn) [Example R57],CDK2 % Inhibition at 0.03 μM,CDK2/Cyclin A; at 0.03 μM,23%
same,HCT-116 % Inhibition at 0.1 μM,"HCT-116 cell line; HCT-116 cells, at 0.1 μM",0%
same,HCT-116 5 Inhibition at 0.25 μM,HCT-116 cell line; HCT-116 cells,47
same,CDK4 % Inhibition at 0.03 μM,[1]; at 0.03 μM,36%
COc1c(C(=O)N2CCC(Nc3nc(N)c(C(=O)c4c(F)cccc4F)s3)CC2)csc1Br [Example R50],CDK2 % Inhibition at 0.03 μM,CDK2/Cyclin A; at 0.03 μM,51%
same,HCT-116 % Inhibition at 0.1 μM,"HCT-116 cell line; HCT-116 cells, at 0.1 μM",0%
same,HCT-116 5 Inhibition at 0.25 μM,HCT-116 cell line; HCT-116 cells,48
same,CDK4 % Inhibition at 0.03 μM,[1]; at 0.03 μM,44%
Nc1nc(NC2CCN(S(=O)(=O)c3c(F)cccc3F)CC2)sc1C(=O)c1c(F)cccc1F [Example P67],CDK2 % Inhibition at 0.03 μM,"CDK2/Cyclin A; 0.03 μM compound, Table 3",−8%
same,HCT-116 % Inhibition at 0.1 μM,HCT-116 cell line; [2],9%
same,HCT-116 % Inhibition at 0.25 μM,"HCT-116 cell line; HCT-116, Table 3",25%
same,CDK4 % Inhibition at 0.03 μM,"[1]; 0.03 μM compound, Table 3",22%
"Nc1nc(NC2CCN(S(=O)(=O)c3ccc(OCCN4CCCCC4)nc3)CC2)sc1C(=O)c1c(F)cccc1F [Example H6, 1-[4-Amino-2-{1-[6-(2-piperidin-1-yl-ethoxy)-pyridine-3-sulfonyl]-piperidin-4-ylamino}-thiazol-5-yl)-1-(2,6-difluoro-phenyl)-methanone Dihydrochloride]",Ki,CDK2/Cyclin A,0.84 nM
same,IC50,HCT-116 cell line; first HCT-116 column (c4),60 nM
same,IC50,HCT-116 cell line; second HCT-116 column (c5),500 nM
same,Ki,[1],0.38 nM
"COc1ccc(S(=O)(=O)N2CCC(Nc3nc(N)c(C(=O)c4c(F)cccc4F)s3)CC2)cc1OC [Example F8, 1-{4-Amino-2-[1-(3,4-dimethoxy-benzenesulfonyl)-piperidin-4-ylamino]-thiazol-5-yl}-1-(2,6-difluoro-phenyl)-methanone]",Ki,CDK2/Cyclin A,< 1 nM
same,IC50,HCT-116 cell line; first HCT-116 column (c4),160 nM
same,IC50,HCT-116 cell line; second HCT-116 column (c5),290 nM
same,Ki,[1],3 nM
Cc1cc(C(=O)N2CCC(Nc3nc(N)c(C(=O)c4c(F)cccc4F)s3)CC2)no1 [Example R64],CDK2 % Inhibition at 0.03 μM,CDK2/Cyclin A; at 0.03 μM,9%
same,HCT-116 % Inhibition at 0.1 μM,"HCT-116 cell line; HCT-116 cells, at 0.1 μM",0%
same,HCT-116 5 Inhibition at 0.25 μM,HCT-116 cell line; HCT-116 cells,42
same,CDK4 % Inhibition at 0.03 μM,[1]; at 0.03 μM,10%
Nc1nc(NC2CCN(C(=O)c3sc4ccccc4c3Cl)CC2)sc1C(=O)c1c(F)cccc1F [Example R31],CDK2 % Inhibition at 0.03 μM,CDK2/Cyclin A; at 0.03 μM,57%
same,HCT-116 % Inhibition at 0.1 μM,"HCT-116 cell line; HCT-116 cells, at 0.1 μM",0%
same,HCT-116 5 Inhibition at 0.25 μM,HCT-116 cell line; HCT-116 cells,42
same,CDK4 % Inhibition at 0.03 μM,[1]; at 0.03 μM,60%
Nc1nc(NC2CCN(C(=O)Nc3ccccc3Br)CC2)sc1C(=O)c1c(F)cccc1F [Example O4],CDK2 % Inhibition At 0.03 μM,CDK2/Cyclin A; 0.03 μM compound,27%
same,HCT-116 % Inhibition at 0.25 μM,"HCT-116 cell line; HCT-116, Table 2",4%
same,CDK4 % Inhibition at 0.03 μM,"[1]; 0.03 μM compound, Table 2",10%
Nc1nc(NC2CCN(C(=O)c3ccccc3)CC2)sc1C(=O)c1c(F)cccc1F [Example R103],CDK2 % Inhibition at 0.03 μM,CDK2/Cyclin A; at 0.03 μM,4%
same,HCT-116 % Inhibition at 0.1 μM,"HCT-116 cell line; HCT-116 cells, at 0.1 μM",0%
same,HCT-116 5 Inhibition at 0.25 μM,HCT-116 cell line; HCT-116 cells,45
same,CDK4 % Inhibition at 0.03 μM,[1]; at 0.03 μM,18%
Nc1nc(NC2CCN(C(=O)c3cnn(-c4ccccc4)c3C(F)(F)F)CC2)sc1C(=O)c1c(F)cccc1F [Example R52],CDK2 % Inhibition at 0.03 μM,CDK2/Cyclin A; at 0.03 μM,5%
same,HCT-116 % Inhibition at 0.1 μM,"HCT-116 cell line; HCT-116 cells, at 0.1 μM",2%
same,HCT-116 5 Inhibition at 0.25 μM,HCT-116 cell line; HCT-116 cells,49
same,CDK4 % Inhibition at 0.03 μM,[1]; at 0.03 μM,23%
Cc1ccc(NC(=O)N2CCC(Nc3nc(N)c(C(=O)c4c(F)cccc4F)s3)CC2)cc1C [Example O48],CDK2 % Inhibition At 0.03 μM,CDK2/Cyclin A; 0.03 μM compound,28%
same,HCT-116 % Inhibition at 0.25 μM,"HCT-116 cell line; HCT-116, Table 2",16%
same,CDK4 % Inhibition at 0.03 μM,"[1]; 0.03 μM compound, Table 2",11%
CCN(CC)C(=O)N1CCC(Nc2nc(N)c(C(=O)c3c(F)cccc3F)s2)CC1 [Example Q3],CDK2 % Inhibition at 0.03 μM,"CDK2/Cyclin A; 0.03 μM compound, Table 4",−43%
same,HCT-116 % Inhibition at 0.1 μM,"HCT-116 cell line; 0.1 μM compound, HCT-116, Table 4",0%
same,HCT-116 % Inhibition at 0.25 μM,"HCT-116 cell line; HCT-116, Table 4",42%
same,CDK4 % Inhibition at 0.03 μM,"[1]; 0.03 μM compound, Table 4",11%
"Nc1nc(NC2CCN(C(=O)c3ccc(I)cc3)CC2)sc1C(=O)c1c(F)cccc1F [Example C1, {4-Amino-2-[1-(4-iodo-benzoyl)-piperidin-4-ylamino]-thiazol-5-yl}-(2,6-difluoro-phenyl)-methanone]",Ki,CDK2/Cyclin A,68 nM
same,IC50,HCT-116 cell line; first HCT-116 column (c4),1200 nM
same,IC50,HCT-116 cell line; second HCT-116 column (c5),2300 nM
same,Ki,[1],11 nM
